Test results taken from patent EP2431033A1, “Dronedarone for preventing cardiovascular hospitalization or mortality in patients with lone atrial fibrillation” (SANOFI, priority 2010, dated 2012).

Columns and labels:
patients with lone AF = assay: Post-hoc analysis of EURIDIS, ADONIS and ATHENA trials, patients with lone AF; type: in vivo; settings: for Number of patients with endpoint (lone AF): first cardiovascular hospitalization or death from any cause
Excerpt: (§1) The present invention is illustrated by data from a post-hoc analysis of patients with lone atrial fibrillation enrolled in the clinical trials called EURIDIS, ADONIS and ATHENA trials with the following endpoints: • cardiovascular hospitalization or death from any cause • cardiovascular hospitalization • all cause mortality • cardiovascular mortality
(§2) Individual data from patients with lone AF enrolled in the EURIDIS, ADONIS and ATHENA trials were entered in a central database. (SAS version 8.2). The institutional review board at each site approved the study, and all patients gave written informed consent for taking part in the studies. In short, common enrolment criterion for these studies was the presence of paroxysmal or persistent AF. Patients with permanent AF or with unstable hemodynamic conditions were excluded from participation.
(§3) Lone AF was defined as AF occurring in patients without structural heart disease or arterial hypertension hypertension (not treated with blood pressure lowering medications), and without extracardiac diseases associated with AF (i.e. thyroid disorders).
(§4) In all 3 studies, patients were randomly assigned to double-blind treatment with dronedarone 400 mg BID or matching placebo. Hospitalisation was defined as at least one overnight stay. The main outcome measure of this post-hoc analysis was the time to the composite endpoint of first hospitalization for cardiovascular reasons or death from any cause, and their individual components.
(§5) Baseline parameters of patients with and without lone AF were compared with logistic regression analysis for qualitative and an ANOVA test for quantitative variables. All outcomes were estimated with the use of the Kaplan-Meier method and compared by means of the log-rank test. […] All P values are two-tailed, and statistical significance was assumed at a p-value of 0.05 or smaller.
(§6) The results obtained in this trial were analysed by the Kaplan Meier method for the figures, and the relative risk (RR) was estimated using Cox's proportional-effect regression model.
(§7) The relative risk (RR) is the ratio of the rates of occurrence of a hospitalization or of a death among the patients on dronedarone, relative to the patients on placebo.

patients without lone AF = assay: Post-hoc analysis of EURIDIS, ADONIS and ATHENA trials, patients without lone AF; type: in vivo
Excerpt: as §1, §2, §3, §4, §5, §6, §7

[1] = first cardiovascular hospitalization, patients with lone AF at baseline, 400mg BID
[2] = patients with lone AF, compared to placebo, x = 1-relative risk
[3] = first cardiovascular hospitalization, patients without lone AF at baseline, 400mg BID

CCCCc1oc2ccc(NS(C)(=O)=O)cc2c1C(=O)c1ccc(OCCCN(CCCC)CCCC)cc1 [Dronedarone, 2-n-Butyl-3-[4-(3-di-n-butylaminopropoxy)benzoyl]-5-methylsulphonamidobenzofuran]
Number of patients with endpoint (lone AF) (patients with lone AF; ADONIS, 400mg BID, N=64): 1 (N=64)
Number of patients with endpoint (lone AF) (patients with lone AF; ATHENA, 400mg BID, N=95): 26 (N=95)
Number of patients with endpoint (lone AF) (patients with lone AF; EURIDIS, 400mg BID, N=81): 7 (N=81)
Number of patients with endpoint (lone AF) (patients with lone AF; Lone AF population (3 studies pooled), 400mg BID, N=240): 34 (N=240)
Cumulative incidence of events at 1 year (patients with lone AF; [1]): 0.113
Cumulative incidence of events at 2 years (patients with lone AF; [1]): 0.195
Cumulative incidence of events at 6 months (patients with lone AF; [1]): 0.057
Relative risk (patients with lone AF; first cardiovascular hospitalization, patients with lone AF at baseline, vs placebo, cause-specific Cox regression model adjusted on studies): 0.543
risks for adverse events between placebo and dronedarone (patients with lone AF; independent from the AF type): No difference
cardiovascular hospitalisations for AF or other supraventricular arrhythmias (patients with lone AF; lone AF, dronedarone group, out of all cardiovascular hospitalisations): 16 of 30
All-cause mortality (HR) (patients with lone AF; lone AF, dronedarone vs placebo, 95%CI=0.31-3.43, p=0.885): 1.02
cardiovascular hospitalizations alone, HR (patients with lone AF; patients with lone AF, compared to placebo, 95%CI=0.34-0.87, p=0.004): 0.54
cardiovascular hospitalizations or death, hazard ratio (HR) (patients with lone AF; patients with lone AF, compared to placebo, 95%CI=0.36-0.88, p=0.004): 0.56
reduction in cardiovascular hospitalizations alone (patients with lone AF; [2]): 46%
reduction of cardiovascular hospitalizations or death (patients with lone AF; [2]): 44%
drug discontinuation rate (patients with lone AF; patients with lone AF, dronedarone arm vs placebo arm): similar
Cumulative incidence of events at 1 year (patients without lone AF; [3]): 0.208
Cumulative incidence of events at 2 years (patients without lone AF; [3]): 0.321
Cumulative incidence of events at 6 months (patients without lone AF; [3]): 0.135
Relative risk (patients without lone AF; first cardiovascular hospitalization, patients without lone AF at baseline, vs placebo, cause-specific Cox regression model adjusted on studies): 0.758
reduction of the risk of CV hospitalizations or death (patients without lone AF; patients with other forms of AF): 23%
drug discontinuation (patients without lone AF; patients with other forms of AF, dronedarone arm vs placebo arm): more often
